# In article PMC10669220, “In Vitro α-Glucosidase and α-Amylase Inhibition, Cytotoxicity and Free Radical Scavenging Profiling of the 6-Halogeno and Mixed 6,8-Dihalogenated 2-Aryl-4-methyl-1,2-dihydroquinazoline 3-Oxides” (Antioxidants, 2023):
# Like-named read-outs stand apart in the source and are kept apart here.
# Columns and labels:
# [1] = test system: breast cancer (MCF-7) cell line; assay: MTT cytotoxicity assay, MCF-7; conditions: for Cell viability percentage, MCF-7: Table S2
# human α-amylase = target: T1, human α-amylase (Homo sapiens, UniProt P04746); assay: α-amylase inhibitor screening kit assay; format: biochemical; conditions: mean ± SD, triplicate; tested at 1, 5, 10, 25, 50 µM
# T1 construct: purchased Abcam ab283391
# T1 sequence (P04746 16-511): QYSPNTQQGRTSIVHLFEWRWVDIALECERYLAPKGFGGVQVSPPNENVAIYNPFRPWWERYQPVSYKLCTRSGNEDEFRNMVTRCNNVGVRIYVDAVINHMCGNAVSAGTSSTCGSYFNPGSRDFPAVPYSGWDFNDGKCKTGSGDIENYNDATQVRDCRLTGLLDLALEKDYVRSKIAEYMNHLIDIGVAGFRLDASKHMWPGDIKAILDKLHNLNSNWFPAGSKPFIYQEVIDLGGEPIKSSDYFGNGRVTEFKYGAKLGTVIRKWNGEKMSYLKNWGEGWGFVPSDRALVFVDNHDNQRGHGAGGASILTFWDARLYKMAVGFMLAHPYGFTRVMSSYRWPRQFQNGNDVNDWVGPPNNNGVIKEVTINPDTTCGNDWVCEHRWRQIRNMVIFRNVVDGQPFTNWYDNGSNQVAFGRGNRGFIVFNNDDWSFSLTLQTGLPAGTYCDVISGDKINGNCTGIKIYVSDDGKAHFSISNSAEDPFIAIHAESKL
# Method: The α-amylase assay was performed in triplicate, using a 96-well plate following the procedure recommended by the manufacturer as outlined in the α-amylase inhibitor Screening Kit (Catalogue No. ab283391; Abcam). […] The average values obtained from the absorbance readings were used to determine the IC50 and standard deviation values in GraphPad prism from nonlinear regression dose–response curves.
# [2] = target: T2, α-Glucosidase type 1 from baker's yeast (Saccharomyces cerevisiae, UniProt P53341); assay: biochemical; conditions: mean ± SD, triplicate, tested at 1, 5, 10, 25, 50 µM
# T2 construct: purchased Sigma Aldrich (Pty) Ltd. G5003
# Method: The assay was conducted in triplicate following a method described in our previous study. […] After pre-incubation, 17 µL of 2 mM PNP-G was added. The absorbances were recorded in a 96-well microplate at 400 nm using an Elisa plate reader (Varioskan Flash, ThermoFischer Scientific, Vantaa, Finland). The average values obtained from the readings were used to determine the IC50 and standard deviation values using a GraphPad Prism software (Version 8, GraphPad Software Inc., San Diego, CA, USA). The average values obtained from the absorbance readings were used to determine the IC50 and standard deviation values in GraphPad prism from nonlinear regression dose–response curves.
# [3] = NO free radical scavenging assay (sodium nitroprusside/Griess); conditions: mean ± SD; sodium nitroprusside, Griess reagent, 550 nm
# Method: The assay was conducted following the method described in our previous study. A mixture of 10 mM sodium nitroprusside (20 µL), phosphate buffer (5 µL) and the test compound (5 µL) were incubated at 25 °C in a 96-well plate for 2.5 h. After incubation, 20 µL of Griess reagent (1.00 g of sulfanilic acid + 0.10 g naphthylethylene diamine dihydrochloride) was added to the previous mixture and allowed to stand for 30 min. […] Each experiment was performed in triplicate, and the average was taken. The average obtained from the absorbance readings was used to calculate the IC50 values in GraphPad prism from nonlinear regression dose–response curves.
# [4] = MTT cytotoxicity assay, HEK293-T; conditions: human, HEK293-T cells
# Method: (§1) Cells were cultured in sterile Dulbecco’s Minimal Essential Medium (DMEM, Gibco) supplemented with 10% fetal bovine serum (FBS) and 1% penicillin-streptomycin solution. […] Cell counting was carried out using a handheld automated cell counter (Scapter 3.0™, Merck, Burlington, MA, USA) and seeded (1 × 10^4 cells/well) into a 96-well plate. After 24 h, the cells were treated with different concentrations (1, 5, 10, 25 and 50 µM) of the test compounds and reference standards prepared in DMEM. The MTT solution (20 μL) prepared in PBS (5 mg/mL) was added to all the wells, and the plates were incubated for 4 h, followed by 1 h incubation with 100 µL of dimethyl sulfoxide (DMSO) to dissolve the formazan crystals. Untreated cells and 5% DMSO were included in the experiment as negative controls. All experiments were performed in triplicate. The plates were read at 570 nm at a reference wavelength of 630 nm using an ELISA plate reader (Varioskan Flash, ThermoFisher Scientific, Vantaa, Finland). The percentage of cell viability was calculated using the following formula, Cell viability %=At/Ab×100 where At represents the absorbance value of test compound and Ab the absorbance value of the blank. […] The data were expressed as means ± SD.
# [5] = test system: human embryonic kidney (HEK293-T) cell line; assay: MTT cytotoxicity assay, HEK293-T; conditions: for IC50: read-out: IC50 Hek293-T; for Cell viability percentage, HEK293-T: Table S4
# Method: as §1
# [6] = test system: lung cancer (A549) cell line; assay: MTT cytotoxicity assay, A549; conditions: for Cell viability percentage, A549: Table S3
# Method: as §1
# [7] = DPPH radical scavenging assay; conditions: mean ± SD; 45 min in the dark; 512 nm
# Method: The DPPH radical scavenging assay was conducted following the procedure described in our previous study. The test compounds and ascorbic acid at various concentrations (ranging from 0 µM to 50 µM) in DMSO were mixed with a solution of DPPH (0.20 mM) in methanol and incubated in the dark for 45 min. Five absorbance readings were recorded at 512 nm using an Elisa plate reader (Varioskan Flash, ThermoFisher Scientific, Vantaa, Finland). The experiment was carried out in triplicate, and averaged values from the absorbance readings were used to determine the IC50 and standard deviation values in GraphPad prism from nonlinear regression dose–response curves.
# [8] = Homo sapiens, MCF7, read-out: IC50 MCF-7
# [9] = Homo sapiens, A549, read-out: IC50 A549
# T2 sequence (P53341 whole entry): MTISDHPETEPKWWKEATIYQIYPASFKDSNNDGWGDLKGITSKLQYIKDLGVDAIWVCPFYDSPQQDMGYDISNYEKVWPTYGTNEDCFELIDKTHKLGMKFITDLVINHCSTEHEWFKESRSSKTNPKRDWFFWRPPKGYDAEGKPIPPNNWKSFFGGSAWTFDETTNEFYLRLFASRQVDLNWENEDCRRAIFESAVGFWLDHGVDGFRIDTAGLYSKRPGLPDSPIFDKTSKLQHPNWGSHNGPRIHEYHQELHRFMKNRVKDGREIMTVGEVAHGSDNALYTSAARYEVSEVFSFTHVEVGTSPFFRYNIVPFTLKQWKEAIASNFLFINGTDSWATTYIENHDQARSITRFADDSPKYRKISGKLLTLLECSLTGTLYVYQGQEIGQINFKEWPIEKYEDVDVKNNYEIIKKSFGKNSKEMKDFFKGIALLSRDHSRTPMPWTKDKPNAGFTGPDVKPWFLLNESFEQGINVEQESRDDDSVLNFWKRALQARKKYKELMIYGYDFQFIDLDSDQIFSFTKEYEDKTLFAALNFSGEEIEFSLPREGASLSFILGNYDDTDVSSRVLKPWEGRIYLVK
Compound,"Cell viability percentage, MCF-7 ([1]; Conc. 1 (µM per method))","Cell viability percentage, MCF-7 ([1]; Conc. 5 (µM per method))","Cell viability percentage, MCF-7 ([1]; Conc. 10 (µM per method))","Cell viability percentage, MCF-7 ([1]; Conc. 25 (µM per method))","Cell viability percentage, MCF-7 ([1]; Conc. 50 (µM per method))","IC50 [1, 8]",IC50 (human α-amylase),IC50 [3],viability at 1 µM [4],viability at 5 µM [4],viability at 10 µM [4],viability at 25 µM [4],"IC50 ([5]; Homo sapiens, HEK-293T)","Cell viability percentage, A549 ([6]; Conc. 1 (µM per method))","Cell viability percentage, A549 ([6]; Conc. 5 (µM per method))","Cell viability percentage, A549 ([6]; Conc. 10 (µM per method))","Cell viability percentage, A549 ([6]; Conc. 25 (µM per method))","Cell viability percentage, A549 ([6]; Conc. 50 (µM per method))","IC50 [6, 9]",IC50 [7],further results
COc1ccc(C2Nc3ccc(I)cc3C(C)=[N+]2[O-])cc1 (centres unmarked) [Compound 3h],"45,0932%","44,5775%","43,1304%","41,2009%","37,5083%",22.62 ± 0.12 µM,55.72 ± 0.02 µM,10.05 ± 0.003 µM,33.3%,32.6%,30.8%,29.7%,24.26 ± 0.04 µM,"87,7714%","86,9389%","64,8667%","56,0806%","38,362%",18.71 ± 0.16 µM,0.21 ± 0.057 µM,IC50 ([2]; IC50 α-Glucosidase): 27.18 ± 0.02 µM; viability at 50 µM [4]: 28.1%; melting point: 176 to 179 °C
"COc1cccc2c1C(=O)c1c(O)c3c(c(O)c1C2=O)C[C@@](O)(C(=O)CO)C[C@@H]3O[C@H]1C[C@H](N)[C@H](O)[C@H](C)O1 [Doxorubicin, doxorubicin, reference compound]",,,,,,0.25 ± 0.05 µM,,,,,,,0.87 ± 0.04 µM,,,,,,0.36 ± 0.07 µM,,
CC1=[N+]([O-])C(c2ccc(F)cc2)Nc2c(I)cc(Br)cc21 (centres unmarked) [Compound 3j],"60,354%","53,8289%","40,413%","30,7493%","22,7375%",15.06 ± 0.01 µM,17.48 ± 0.03 µM,5.17 ± 0.007 µM,67.6%,72.8%,54.5%,33.9%,32.83 ± 0.06 µM,"79,064%","67,1729%","57,7455%","42,6257%","29,7109%",13.7 ± 0.12 µM,61.01 ± 0.053 µM,IC50 ([2]; IC50 α-Glucosidase): 19.69 ± 0.01 µM; viability at 50 µM [4]: 19.4%; melting point: 170 to 173 °C
CC1=[N+]([O-])C(c2ccccc2)Nc2c(Br)cc(I)cc21 (centres unmarked) [Compound 3m],"25,998%","24,1517%","20,9415%","20,6088%","17,6314%",15.34 ± 0.07 µM,16.73 ± 0.01 µM,55.39 ± 0.002 µM,81.2%,75%,51.1%,42%,27.97 ± 0.08 µM,"78,1978%","68,6691%","61,413%","42,2995%","30,0709%",16.34 ± 0.06 µM,8.88 ± 0.011 µM,IC50 ([2]; IC50 α-Glucosidase): 9.14 ± 0.03 µM; viability at 50 µM [4]: 19.1%; melting point: 180 to 181 °C
CC1=[N+]([O-])C(c2ccc(Cl)cc2)Nc2c(I)cc(Br)cc21 (centres unmarked) [Compound 3k],"42,1823%","41,6001%","39,6041%","38,7891%","38,1737%",16.65 ± 0.05 µM,4.46 ± 0.02 µM,15 ± 0.005 µM,61.3%,55.4%,42.5%,31.6%,21.04 ± 0.05 µM,"78,5578%","73,6416%","60,0068%","42,682%","32,6808%",15.37 ± 0.13 µM,4.08 ± 0.038 µM,IC50 ([2]; read-out: IC50 α-Glucosidase): 13.47 ± 0.04 µM; viability at 50 µM [4]: 24%
CC1=[N+]([O-])C(c2ccc(Cl)cc2)Nc2ccc(I)cc21 (racemic) [Compound 3g],"42,0991%","37,841%","36,5769%","35,8117%","33,9155%",,53.42 ± 0.01 µM,4.25 ± 0.005 µM,,,,,,"72,7416%","56,2268%","50,6131%","43,0757%","33,0296%",,26.88 ± 0.043 µM,"IC50 ([1]; read-out: IC50 MCF-7, MTT, mean ± SD, triplicate, 1-50 µM): 10.38 ± 0.08 µM; IC50 ([2]; read-out: IC50 α-Glucosidase): 15.08 ± 0.08 µM; Cell viability percentage, HEK293-T ([5]; Conc. 1 (µM per method)): 63,41%; Cell viability percentage, HEK293-T ([5]; Conc. 5 (µM per method)): 46,5251%; Cell viability percentage, HEK293-T ([5]; Conc. 10 (µM per method)): 41,062%; Cell viability percentage, HEK293-T ([5]; Conc. 25 (µM per method)): 31,41%; Cell viability percentage, HEK293-T ([5]; Conc. 50 (µM per method)): 17,0502%; IC50 ([5]; MTT, normal cell line, mean ± SD, triplicate, 1-50 µM): 21.7 ± 0.13 µM; IC50 ([6]; read-out: IC50 A549, MTT, mean ± SD, triplicate, 1-50 µM): 18.63 ± 0.11 µM"
